Reference: ChEMBL document CHEMBL1201862, “PubChem BioAssay data set” (2004)
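Five concentrations, 48 hours, 96-well plates. GI50 is the concentration that inhibits growth by half.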 Calls of active or inactive are those of the source. Cut-off read from the data, not from the text of the source: active = GI50 up to about 1.1 µM and inactive = higher.

What was measured:
Assay in all cases: DTP human tumour cell line panel, 48 h
[1] = system: ACHN
[2] = system: DU-145
[3] = system: HL-60
[4] = system: HT-29
[5] = system: IGROV-1
[6] = system: MCF7
[7] = system: MDA-MB-231
[8] = system: MDA-N
[9] = system: MOLT-4
[10] = system: Malme-3M
[11] = system: NCI-H460
[12] = system: NCI/ADR-RES
[13] = system: SK-MEL-28
[14] = system: SW-620
[15] = system: T47D
[16] = system: TK-10
[17] = system: NCI-H226
[18] = system: SK-MEL-5
[19] = system: HCC 2998

| Compound | GI50 [1] | GI50 [2] | GI50 [3] | GI50 [4] | GI50 [5] | GI50 [6] | GI50 [7] | GI50 [8] | GI50 [9] | GI50 [10] | GI50 [11] | GI50 [12] | GI50 [13] | GI50 [14] | GI50 [15] | GI50 [16] | GI50 [17] | GI50 [18] | GI50 [19] |
| --- | --- | --- | --- | --- | --- | --- | --- | --- | --- | --- | --- | --- | --- | --- | --- | --- | --- | --- | --- |
| O=C(O)c1ccccc1NCn1c(=S)sc2ccccc21 | 35.6 µM (inactive) | 37.2 µM (inactive) | 19.6 µM (inactive) | 59.8 µM (inactive) | 57.4 µM (inactive) | 22.4 µM (inactive) | 51.8 µM (inactive) | > 100 µM (inactive) | 35.1 µM (inactive) | 35.5 µM (inactive) | 21.9 µM (inactive) | > 100 µM (inactive) | > 100 µM (inactive) | 36 µM (inactive) | 37.1 µM (inactive) | 94.6 µM (inactive) |  |  |  |
| Cc1nc(N)nc2ccccc12 | > 100 µM (inactive) | > 100 µM (inactive) | > 100 µM (inactive) | > 100 µM (inactive) | > 100 µM (inactive) | > 100 µM (inactive) | > 100 µM (inactive) | > 100 µM (inactive) | > 100 µM (inactive) | > 100 µM (inactive) | > 100 µM (inactive) | > 100 µM (inactive) | > 100 µM (inactive) | > 100 µM (inactive) | > 100 µM (inactive) | > 100 µM (inactive) | 0.172 µM (active) | > 100 µM (inactive) |  |
| N#CC1C(=O)NC2=C(CCOc3c2ccc2ccccc32)C1c1ccc(F)cc1 (stereo not drawn) | 13.3 µM (inactive) | 29.1 µM (inactive) | > 100 µM (inactive) |  | 17.3 µM (inactive) | 36.7 µM (inactive) |  |  | 37.6 µM (inactive) | 27.8 µM (inactive) | 29.9 µM (inactive) | 14.9 µM (inactive) |  | 31 µM (inactive) | 27.4 µM (inactive) | 23.4 µM (inactive) |  | 21.5 µM (inactive) | 23.9 µM (inactive) |
| CCC1OC(=O)CC(O)C(C)C(OC2OC(C)C(O)C(N(C)C)C2O)C(CC=O)CC(C)C(=O)/C=C/C2(C)OC2C1C (stereo not drawn) | 25.8 µM (inactive) | 20.7 µM (inactive) | 23.6 µM (inactive) | 20.2 µM (inactive) | 23.1 µM (inactive) | 21.5 µM (inactive) | 24 µM (inactive) | 24.4 µM (inactive) | 14.1 µM (inactive) | 11.6 µM (inactive) | 32.4 µM (inactive) |  | 54.6 µM (inactive) | 20 µM (inactive) | 17.2 µM (inactive) | 34.2 µM (inactive) | > 100 µM (inactive) | 7.03 µM (inactive) | 15.9 µM (inactive) |
| CN(N)c1cc(=O)[nH]c(=O)[nH]1 | > 100 µM (inactive) | > 100 µM (inactive) | 43.4 µM (inactive) | > 100 µM (inactive) | > 100 µM (inactive) |  | > 100 µM (inactive) | > 100 µM (inactive) | > 100 µM (inactive) | > 100 µM (inactive) | > 100 µM (inactive) | > 100 µM (inactive) | > 100 µM (inactive) | > 100 µM (inactive) | > 100 µM (inactive) | > 100 µM (inactive) | > 100 µM (inactive) | > 100 µM (inactive) | > 100 µM (inactive) |
| CCCCCCCCCCCCN1[C@H]2CCC[C@H]2C(O)[C@@H]2CCC[C@@H]21 (stereo partly drawn) | > 100 µM (inactive) | > 100 µM (inactive) | 33.8 µM (inactive) | > 100 µM (inactive) | 98.9 µM (inactive) |  | > 100 µM (inactive) | > 100 µM (inactive) | > 100 µM (inactive) |  | > 100 µM (inactive) | > 100 µM (inactive) | > 100 µM (inactive) | > 100 µM (inactive) | 29.2 µM (inactive) |  | 96.6 µM (inactive) | 58.2 µM (inactive) | > 100 µM (inactive) |
| O=c1c2ccccc2nc(Cc2nc(-c3ccc(Cl)cc3)cs2)n1-c1ccc(Cl)cc1 | 37 µM (inactive) | 55.8 µM (inactive) | 66.2 µM (inactive) | 85.7 µM (inactive) | 45.2 µM (inactive) | 46.9 µM (inactive) | > 100 µM (inactive) | 41.4 µM (inactive) | 30.9 µM (inactive) | > 100 µM (inactive) | 46.2 µM (inactive) | 57.5 µM (inactive) | 23.8 µM (inactive) | 91.8 µM (inactive) |  | > 100 µM (inactive) | 88.5 µM (inactive) | 34.4 µM (inactive) | 80 µM (inactive) |
| N#CCCN(CCC#N)c1ccc(/C=C2\N=C(c3ccccc3)N(c3ccc(F)cc3)C2=O)cc1 | > 100 µM (inactive) | > 100 µM (inactive) |  | > 100 µM (inactive) | > 100 µM (inactive) | > 100 µM (inactive) | > 100 µM (inactive) | > 100 µM (inactive) | > 100 µM (inactive) | > 100 µM (inactive) | > 100 µM (inactive) | > 100 µM (inactive) | > 100 µM (inactive) | > 100 µM (inactive) | > 100 µM (inactive) | > 100 µM (inactive) | > 100 µM (inactive) | > 100 µM (inactive) |  |
| CC(NC(=O)C(OC(=O)C(C)NC(=O)OC(C)(C)C)C(C)C)C(=O)OC(C(=O)O)C(C)C (stereo not drawn) | > 100 µM (inactive) | > 100 µM (inactive) |  | > 100 µM (inactive) | > 100 µM (inactive) |  | > 100 µM (inactive) | > 100 µM (inactive) | > 100 µM (inactive) | > 100 µM (inactive) | > 100 µM (inactive) | > 100 µM (inactive) | > 100 µM (inactive) | > 100 µM (inactive) | > 100 µM (inactive) | > 100 µM (inactive) | > 100 µM (inactive) | > 100 µM (inactive) | > 100 µM (inactive) |
| C[C@@H]1CC(=O)C[C@@H]2CC[C@H]3[C@@H]4CC[C@H](OC(=O)c5cccc6cc7ccccc7nc56)[C@H]4CC[C@@H]3[C@H]21 | 15.7 µM (inactive) | 14 µM (inactive) |  | 15.8 µM (inactive) | 3.89 µM (inactive) |  | 15.9 µM (inactive) | 13.5 µM (inactive) | 3.48 µM (inactive) | 8.71 µM (inactive) | 14.1 µM (inactive) | 20.9 µM (inactive) | 28.6 µM (inactive) | 17.4 µM (inactive) | 13.7 µM (inactive) | 27.9 µM (inactive) | 26.5 µM (inactive) | 13.2 µM (inactive) |  |
| Cc1c(NC(=S)N/N=C\C(=N/NC(=S)Nc2c(C)n(C)n(-c3ccccc3)c2=O)c2ccccc2)c(=O)n(-c2ccccc2)n1C | > 100 µM (inactive) | > 100 µM (inactive) |  | > 100 µM (inactive) |  |  | > 100 µM (inactive) |  | > 100 µM (inactive) | 87.1 µM (inactive) | > 100 µM (inactive) | > 100 µM (inactive) |  | > 100 µM (inactive) | > 100 µM (inactive) | > 100 µM (inactive) | > 100 µM (inactive) | > 100 µM (inactive) | > 100 µM (inactive) |
| COc1cc(NC(C)=O)ccc1C(=O)NN1C(=O)C(Cl)C1c1ccco1 (stereo not drawn) | 86.3 µM (inactive) | > 100 µM (inactive) | 41.7 µM (inactive) | > 100 µM (inactive) | 80.5 µM (inactive) | 58.3 µM (inactive) |  | > 100 µM (inactive) | 31.9 µM (inactive) | > 100 µM (inactive) |  | > 100 µM (inactive) | > 100 µM (inactive) | > 100 µM (inactive) | > 100 µM (inactive) |  | 44.7 µM (inactive) | 76.4 µM (inactive) |  |
| CCOP(=O)(/C=C/n1ccc(=O)[nH]c1=O)OCC | > 100 µM (inactive) | > 100 µM (inactive) | > 100 µM (inactive) | > 100 µM (inactive) | > 100 µM (inactive) | > 100 µM (inactive) | > 100 µM (inactive) | > 100 µM (inactive) | > 100 µM (inactive) |  | > 100 µM (inactive) | > 100 µM (inactive) | > 100 µM (inactive) | > 100 µM (inactive) | > 100 µM (inactive) | > 100 µM (inactive) | > 100 µM (inactive) | > 100 µM (inactive) |  |
| COC1=CC(=O)O/C1=C(\OC)C1OC1c1ccccc1 (stereo not drawn) | > 100 µM (inactive) | > 100 µM (inactive) | 85.7 µM (inactive) | > 100 µM (inactive) | > 100 µM (inactive) | > 100 µM (inactive) | 74.3 µM (inactive) |  | 53.7 µM (inactive) | > 100 µM (inactive) | > 100 µM (inactive) | > 100 µM (inactive) | > 100 µM (inactive) | > 100 µM (inactive) | 76 µM (inactive) | > 100 µM (inactive) | > 100 µM (inactive) | > 100 µM (inactive) | > 100 µM (inactive) |
| COc1cc(CC2CC(c3ccc4c(c3)OCO4)OC2=O)cc(OC)c1OC (stereo not drawn) | > 100 µM (inactive) | > 100 µM (inactive) | > 100 µM (inactive) | > 100 µM (inactive) |  | > 100 µM (inactive) | 52.1 µM (inactive) |  | 83 µM (inactive) | 61.1 µM (inactive) | > 100 µM (inactive) | 83.2 µM (inactive) | > 100 µM (inactive) | > 100 µM (inactive) | 39 µM (inactive) | > 100 µM (inactive) | > 100 µM (inactive) | 43.9 µM (inactive) | > 100 µM (inactive) |
| COC(=O)C(=CNC(N)=O)C(=O)OC | > 100 µM (inactive) | > 100 µM (inactive) |  | > 100 µM (inactive) | > 100 µM (inactive) | > 100 µM (inactive) |  | > 100 µM (inactive) | > 100 µM (inactive) |  | > 100 µM (inactive) | > 100 µM (inactive) | > 100 µM (inactive) | > 100 µM (inactive) | > 100 µM (inactive) | > 100 µM (inactive) |  | > 100 µM (inactive) |  |
